Laboratory results as given in patent US20200360352A1, “USE OF RIFAMYCIN-NITROIMIDAZOLE COUPLING MOLECULE” (priority 2019, published 2020).
Where two headings read alike, the source gives them in different places.

Tests used:
Format in all cases: cell-based
Mycobacterium kansasii [1] = assay: MIC, micro broth dilution with resazurin readout; settings: read-out: Minimum Inhibitory Concentration (MIC)
Mycobacterium avium [2] = assay: MIC, micro broth dilution with resazurin readout; settings: read-out: Minimum Inhibitory Concentration (MIC)
Mycobacterium avium [3] = assay: MBC, plating of MIC wells and CFU count; settings: read-out: Minimum Bactericidal Concentration (MBC)
Mycodacterium chelonei = assay: MIC, micro broth dilution with resazurin readout; settings: MH Culture Medium; Chelonei (standard strain); read-out: Minimum Inhibitory Concentration (MIC)
Mycobacterium fortuitum = assay: MIC, micro broth dilution with resazurin readout; settings: Mycolicibacterium fortuitum, MH Culture Medium, read-out: Minimum Inhibitory Concentration (MIC)
Mycobacterium kansasii [4] = assay: MBC, plating of MIC wells and CFU count; settings: read-out: Minimum Bactericidal Concentration (MBC)
Mycobacterium abscessus [5] = assay: MBC, plating of MIC wells and CFU count; settings: Mycobacteroides abscessus, read-out: Minimum Bactericidal Concentration (MBC)
[6] = test system: Mycobacterium intracellulare; assay: MIC, micro broth dilution with resazurin readout; settings: MH Culture Medium, read-out: Minimum Inhibitory Concentration (MIC)
[7] = test system: Mycobacterium massiliense; assay: MIC, micro broth dilution with resazurin readout; settings: Mycobacteroides abscessus, MH Culture Medium, read-out: Minimum Inhibitory Concentration (MIC)
Mycobacterium abscessus [8] = assay: MIC, micro broth dilution with resazurin readout; settings: Mycobacteroides abscessus, read-out: Minimum Inhibitory Concentration (MIC)
[9] = MH Culture Medium, Kansasii (standard strain)
[10] = MH Culture Medium, clinically isolated strain Kansasii (S9)
[11] = MH Culture Medium, clinically isolated strain Kansasii (S199)
[12] = MH Culture Medium, clinically isolated strain Kansasii (S520)
[13] = MH Culture Medium, clinically isolated strain Kansasii (S609)
[14] = 7H9 Broth, Mycobacterium avium Smooth
[15] = MH Broth, Mycobacterium avium Smooth
[16] = MH Culture Medium, Avium (standard strain)
[17] = MH Culture Medium, clinically isolated strain Avium (S31)
[18] = MH Culture Medium, clinically isolated strain Avium (S123)
[19] = MH Culture Medium, clinically isolated strain Avium (S559)
[20] = MH Culture Medium, clinically isolated strain Avium (S568)
[21] = MH Culture Medium, clinically isolated strain Avium (S577)
[22] = MH Culture Medium, clinically isolated strain Avium (S597)
[23] = MH Culture Medium, clinically isolated strain Avium (S602)
[24] = clinically isolated strain Fortuitum (S103)
[25] = clinically isolated strain Fortuitum (S111)
[26] = Intracellulare (standard strain)
[27] = clinically isolated strain Intracellulare (S90)
[28] = clinically isolated strain Intracellulare (S261)
[29] = clinically isolated strain Intracellulare (S269)
[30] = clinically isolated strain Intracellulare (S290)
[31] = clinically isolated strain Intracellulare (S291)
[32] = clinically isolated strain Intracellulare (S298)
[33] = clinically isolated strain Intracellulare (S442)
[34] = clinically isolated strain Intracellulare (S541)
[35] = clinically isolated strain Intracellulare (S623)
[36] = clinically isolated strain Intracellulare (ZPS)
[37] = clinically isolated strain Massiliense (D10)
[38] = clinically isolated strain Massiliense (D14)
[39] = clinically isolated strain Massiliense (D18)
[40] = 7H9 Broth, Mycobacterium avium Rough

Cc1ncc([N+](=O)[O-])n1CCO [Metronidazole]
> 64 µg/mL: MIC (Mycobacterium kansasii [1]; 7H9 Broth) | MIC (Mycobacterium kansasii [1]; MH Broth) | MIC (Mycobacterium avium [2]; [14]) | MIC (Mycobacterium avium [2]; [15]) | MBC (Mycobacterium avium [3]; [14]) | MBC (Mycobacterium avium [3]; [15]) | MBC (Mycobacterium kansasii [4]; 7H9 Broth) | MBC (Mycobacterium kansasii [4]; MH Broth) | MBC (Mycobacterium abscessus [5]; 7H9 Broth) | MBC (Mycobacterium abscessus [5]; MH Broth) | MIC (Mycobacterium abscessus [8]; 7H9 Broth) | MIC (Mycobacterium abscessus [8]; MH Broth)
8 µg/mL: MIC (Mycobacterium kansasii [1]; [9]) | MIC (Mycobacterium kansasii [1]; [10]) | MIC (Mycobacterium kansasii [1]; [11]) | MIC (Mycobacterium kansasii [1]; [12]) | MIC (Mycobacterium kansasii [1]; [13]) | MIC (Mycobacterium avium [2]; [16]) | MIC (Mycobacterium avium [2]; [18]) | MIC (Mycobacterium avium [2]; [19]) | MIC (Mycobacterium avium [2]; [20]) | MIC (Mycobacterium avium [2]; [21]) | MIC (Mycobacterium avium [2]; [22]) | MIC (Mycobacterium fortuitum; [24]) | MIC [6, 26] | MIC [6, 30] | MIC [6, 31] | MIC [6, 33] | MIC [6, 35] | MIC [6, 36] | MIC [7, 39]
16 µg/mL: MIC (Mycobacterium avium [2]; [17]) | MIC (Mycodacterium chelonei) | MIC (Mycobacterium fortuitum; Fortuitum (standard strain)) | MIC (Mycobacterium fortuitum; [25]) | MIC [6, 27] | MIC [6, 28] | MIC [6, 29] | MIC [6, 32] | MIC [6, 34] | MIC [7, 37] | MIC [7, 38]
32 µg/mL: MIC (Mycobacterium avium [2]; [23])

CO[C@H]1/C=C/O[C@@]2(C)Oc3c(C)c(O)c4c(O)c(c(/C=N/N5CCN(C)CC5)c(O)c4c3C2=O)NC(=O)/C(C)=C\C=C\[C@H](C)[C@H](O)[C@@H](C)[C@@H](O)[C@@H](C)[C@H](OC(C)=O)[C@@H]1C [Rifampicin]
4 µg/mL: MIC (Mycobacterium avium [2]; [20]) | MBC (Mycobacterium avium [3]; [14]) | MBC (Mycobacterium avium [3]; [15]) | MBC (Mycobacterium kansasii [4]; 7H9 Broth) | MBC (Mycobacterium kansasii [4]; MH Broth) | MIC [6, 29] | MIC [6, 30] | MIC [6, 31] | MIC [6, 32]
0.25 µg/mL: MIC (Mycobacterium avium [2]; [16]) | MIC [6, 26]
1 µg/mL: MIC (Mycobacterium avium [2]; [15])
64 µg/mL: MIC (Mycobacterium fortuitum; [25])
0.0625 µg/mL: MIC (Mycobacterium kansasii [1]; [11]) | MIC (Mycobacterium kansasii [1]; [12]) | MIC (Mycobacterium kansasii [1]; [13]) | MIC (Mycobacterium avium [2]; [17])
> 64 µg/mL: MBC (Mycobacterium avium [3]; [40]) | MIC (Mycodacterium chelonei) | MIC (Mycobacterium fortuitum; Fortuitum (standard strain)) | MIC (Mycobacterium fortuitum; [24]) | MBC (Mycobacterium abscessus [5]; 7H9 Broth) | MBC (Mycobacterium abscessus [5]; MH Broth) | MIC [7, 37] | MIC [7, 38] | MIC [7, 39] | MIC (Mycobacterium abscessus [8]; 7H9 Broth) | MIC (Mycobacterium abscessus [8]; MH Broth)
0.5 µg/mL: MIC (Mycobacterium avium [2]; [14])
0.125 µg/mL: MIC (Mycobacterium kansasii [1]; [9]) | MIC (Mycobacterium kansasii [1]; [10]) | MIC (Mycobacterium avium [2]; [19]) | MIC (Mycobacterium avium [2]; [21])
8 µg/mL: MIC (Mycobacterium avium [2]; [40]) | MIC (Mycobacterium avium [2]; MH Broth, Mycobacterium avium Rough) | MIC (Mycobacterium avium [2]; [18]) | MIC (Mycobacterium avium [2]; [22]) | MIC [6, 27] | MIC [6, 35]
16 µg/mL: MIC (Mycobacterium kansasii [1]; 7H9 Broth) | MIC (Mycobacterium kansasii [1]; MH Broth) | MIC [6, 28] | MIC [6, 34]
2 µg/mL: MIC (Mycobacterium avium [2]; [23]) | MIC [6, 33] | MIC [6, 36]
